Results taken from PubChem BioAssay (NCI).
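In this assay, cells in 96-well plates receive the compound at five concentrations for 48 hours. Endpoints are linearly interpolated between the surrounding concentrations. GI50 marks 50% less growth. TGI: total growth inhibition.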 Where a SMILES comes first, the peptide text is derived from it. The star is where a group is joined. Boc = CC(C)(C)OC(=O)*; OBn = c1ccc(CO*)cc1

Columns and labels:
Assay in all cases: DTP human tumour cell line panel, 48 h
MALME-3M melanoma = test system: MALME-3M melanoma
T-47D breast = test system: T-47D breast
SK-MEL-28 melanoma = test system: SK-MEL-28 melanoma
HT29 colon = test system: HT29 colon
EKVX NSCLC = test system: EKVX NSCLC
SR leukemia = test system: SR leukemia
SW-620 colon = test system: SW-620 colon
A498 renal = test system: A498 renal
SN12C renal = test system: SN12C renal
HCT-116 colon = test system: HCT-116 colon

Row | SMILES | TGI (MALME-3M melanoma) [µM] | TGI (T-47D breast) [µM] | TGI (SK-MEL-28 melanoma) [µM] | TGI (HT29 colon) [µM] | TGI (EKVX NSCLC) [µM] | TGI (SR leukemia) [µM] | TGI (SW-620 colon) [µM] | TGI (A498 renal) [µM] | TGI (SN12C renal) [µM] | TGI (HCT-116 colon) [µM] | GI50 (MALME-3M melanoma) [µM] | GI50 (T-47D breast) [µM] | GI50 (SK-MEL-28 melanoma) [µM] | GI50 (HT29 colon) [µM] | GI50 (EKVX NSCLC) [µM] | GI50 (SR leukemia) [µM] | GI50 (SW-620 colon) [µM] | GI50 (A498 renal) [µM] | GI50 (SN12C renal) [µM] | GI50 (HCT-116 colon) [µM]
1 | CCCCCCCCCCCCCCCCOc1ccc(/C=C/C2=[N+](CCCl)CCO2)cc1 | > 100 | > 100 | > 100 | > 100 | > 100 | 92.5 | > 100 | > 100 | > 100 | > 100 |  |  |  |  |  |  |  |  |  | 
2 | CCOC(=O)N1N(c2ccccc2)C(=O)C1(c1ccccc1)c1ccccc1 | > 100 | > 100 | > 100 | > 100 | > 100 | > 100 | > 100 | > 100 | > 100 | > 100 |  |  |  |  |  |  |  |  |  | 
3 | CC(=O)c1ccccc1NS(=O)(=O)c1ccc2nc(C)n(NS(=O)(=O)c3ccccc3C(C)=O)c(=O)c2c1 | > 100 | > 100 | > 100 | > 100 | > 100 | > 100 | > 100 | > 100 | > 100 | > 100 |  |  |  |  |  |  |  |  |  | 
4 | Oc1ccccc1-c1nn2c(CCCCCCCCc3nnc4sc(-c5ccccc5O)nn34)nnc2s1 | > 100 | 52.1 | > 100 | > 67.7 | > 88.9 | > 48.7 | > 100 | > 89 | > 100 | > 71.2 |  |  |  |  |  |  |  |  |  | 
5 | CCOP(C)(=O)/C(Cc1ccc(OC)c(OC)c1)=N\O (stereo not given) | > 100 | > 100 | > 100 | > 100 | > 100 | > 100 | > 100 | > 100 | > 100 | > 100 |  |  |  |  |  |  |  |  |  | 
6 | NC(=O)CNC(=O)[C@@H]1C[C@@H](OCCC(=O)O)CN1C(=O)OCc1ccccc1 | > 100 | > 100 | > 100 | > 100 | > 100 | > 100 | > 100 | > 100 | > 100 | > 100 |  |  |  |  |  |  |  |  |  | 
7 | Cc1cc(C)c2c(=O)cc(-c3ccc4ccccc4c3)[nH]c2n1 | > 100 | > 100 | > 100 | 59.8 | > 100 | 18.6 | > 100 | 24.1 | > 100 | > 69.9 |  |  |  |  |  |  |  |  |  | 
8 | C[N+](C)(C)C(C1=CCCC1=O)c1ccccc1 (stereo not given) | 41 | > 100 | > 100 | 56 | > 100 | 44.5 | 70.4 | > 100 | 44 | 32.1 |  |  |  |  |  |  |  |  |  | 
9 | C=CCn1c(-c2ccc(Cl)cc2Cl)csc1=Nc1c(C)n(C)n(-c2ccccc2)c1=O | 31.4 | 16.6 | 26.7 | 25.3 | 13.5 | 21.9 | 32.8 | 25.4 | 27.5 | 20.4 |  |  |  |  |  |  |  |  |  | 
10 | CC(=O)C1=C(C)N(c2ccccc2)C2(O)C=CC(=O)C3=C(O)c4ccccc4C(=O)C312 (stereo not given) | 2.64 | 76.8 | 52.2 | > 100 | 49.1 | > 100 | > 100 | 39.4 | 30.3 | > 100 |  |  |  |  |  |  |  |  |  | 
11 | CN(C)Cc1cc(C(=O)/C=C/c2ccc(F)cc2)cc(CN(C)C)c1O | 36.5 | 46.3 | > 100 | > 100 | > 100 | 71.4 | 75.5 | 94.8 | > 100 | 27 |  |  |  |  |  |  |  |  |  | 
12 | Cc1nc2cccc([N+](=O)[O-])c2n1CCCN(C)C | > 100 | > 100 | > 100 | > 100 | > 100 | > 100 | > 100 | > 100 | > 100 | > 100 |  |  |  |  |  |  |  |  |  | 
13 | O=C(c1ccccc1)c1nn(-c2ccccc2)c2nc3nc(-c4ccccc4)cc(=O)n3nc12 | 34.6 | 99.5 | > 100 | 64.2 | 58.2 | 40.4 | > 100 | > 100 | 53.2 | 28 | 0.0477 | 28.9 | 37.8 | 24.7 | 22.2 | 17.6 | 33.1 | 44.8 | 22.7 | 14.6
14 | CC(C)CC(NC(=O)C(Cc1ccccc1)NC(=O)C(Cc1ccccc1)NC(=O)OC(C)(C)C)C(=O)OCc1ccccc1 (stereo not drawn) (Boc-Phe-Phe-Leu-OBn; configuration not given here) | > 100 | > 100 | > 100 | > 100 | > 100 | > 100 | > 100 | > 100 | > 100 | > 100 |  |  |  |  |  |  |  |  |  | 
15 | COc1cc(Nc2nc3ccccc3nc2C(C)C)cc(OC)c1OC | > 100 | > 100 | > 100 | > 100 | > 100 | > 100 | > 100 | > 100 | > 100 | > 100 |  |  |  |  |  |  |  |  |  | 
16 | Cc1cccc(C(=O)O)c1CC1NCCC2c3ccccc3NC12 (stereo not given) | > 100 | > 100 | > 100 | > 100 | > 100 | > 100 | > 100 | > 100 | > 100 | > 100 |  |  |  |  |  |  |  |  |  | 
17 | COc1ccc(N(C(=O)NCCO)c2ccccc2)cc1 | > 100 | > 100 | > 100 | > 100 | > 100 | > 100 | > 100 | > 100 | > 100 | > 100 |  |  |  |  |  |  |  |  |  | 
18 | Cc1ccc(C)c(COCCOCn2c(=O)[nH]c(=O)c3cc(Br)ccc32)c1 | > 100 | > 100 | > 100 | > 100 | > 100 | > 100 | > 100 | > 100 | > 100 | > 100 |  |  |  |  |  |  |  |  |  | 
19 | C=CCN1C[C@@H](C)N([C@@H](c2ccc(C(=O)N(CC)CC)cc2)c2cccc(OC)c2)C[C@@H]1C | > 100 | > 100 | > 100 | > 100 | > 100 | > 100 | > 100 | > 100 | > 100 | > 100 |  |  |  |  |  |  |  |  |  | 
20 | Nc1[nH]c(=S)c2c(N)n[nH]c2c1C(=O)Nc1ccc(Cl)cc1 | > 100 | > 100 | > 100 | > 100 | > 100 | > 100 | > 100 | > 100 | > 100 | > 100 |  |  |  |  |  |  |  |  |  | 
21 | Nc1c2c(nc3ccccc13)CCCc1ccccc1-2 | 33.5 | 37.5 | 25 | 22.5 | 38.9 | > 100 | 26.6 | 22 | 39.5 | 19.1 |  |  |  |  |  |  |  |  |  | 
22 | CC[C@H]1C=CCC[C@@]2(C[C@@H]3CC[C@@H]4[C@H](C(=O)OCCCCCCCCCCCCCCCC(=O)N(CCCNC(C)=O)C[C@H](CCNC(C)=O)OC(C)=O)[C@]5(CCC[C@@H](C)O5)NC(=[N+]34)N2)O1 | 0.568 | 2.77 | 2.52 | 0.998 | 1.89 | 0.416 | 2.14 | 1.09 | 2.1 | 1.24 |  |  |  |  |  |  |  |  |  | 
23 | CCN(CC)CCNC(=O)c1nn(-c2ccc(Cl)cc2)c2c1CCc1cc(OC)ccc1-2 | 2.95 | 21 | 4.23 | 6.7 | 23.4 | 22 | 7.59 | 21.9 | 24.2 | 13.3 |  |  |  |  |  |  |  |  |  | 
24 | Nc1ccc(OCCCc2c(-c3ccccc3)nc(N)[nH]c2=O)cc1 | > 100 | 81.2 | > 100 | > 100 | > 100 | > 100 | > 100 | > 100 | > 100 | > 100 |  |  |  |  |  |  |  |  |  | 
25 | CC(=O)OCCOCCN1CCN(c2c(O)c3c(c(O)c2Cl)C(=O)C=CC3=O)CC1 | 0.96 | 2.77 | 2.22 | 2.17 | 3.22 | 4.54 | 0.475 | 3.56 | 1.77 | 0.72 |  |  |  |  |  |  |  |  |  | 
26 | O=[p+]1c2ccccc2[nH]c2ccccc21 | > 100 | > 100 | > 100 | > 100 | > 100 | > 100 | > 100 | > 100 | > 100 | > 100 |  |  |  |  |  |  |  |  |  | 
27 | CNc1nc2c(C)ccc3[nH]c(N(C)C)nc3c-2n1 | 95.6 | > 100 | > 100 | > 100 | > 100 | 97.9 | > 100 | > 100 | > 100 | > 100 |  |  |  |  |  |  |  |  |  | 
28 | Cc1cc(=O)c2ccccc2n1CCCCCCCCCCn1c(C)cc(=O)c2ccccc21 | 34.4 | > 100 | 35.1 | 29.9 | 33.9 | 34 | 56 | 28.9 | 43.3 | 27.8 |  |  |  |  |  |  |  |  |  | 
29 | CCn1c(=O)c2c3cc(OC(C)=O)ccc3oc2c2ccc(OC(C)=O)cc21 | > 100 | 75.4 | > 100 | > 100 | 70.3 | > 100 | > 100 | 83 | > 100 | > 100 |  |  |  |  |  |  |  |  |  | 
30 | NC(=O)C1CCCN1C(=O)N(CCCl)N=O (stereo not given) | > 100 | > 100 | > 100 | > 100 | > 100 | > 100 | > 100 | > 100 | > 100 | > 100 |  |  |  |  |  |  |  |  |  | 
